The nature of data set [1]: Storage and handling stability of activated ester synthons. In kind it is physicochemical. Particulars: for stability on handling in the lab: open handling in the lab, humid environment, 1H NMR. From the text:
With the knowledge of proton chemical shift and peak splitting pattern of products, we were able to analyse the crude reaction mixtures and quickly determine the relative amount of the products in the reaction mixture. Molecule 1 produced a 57% yield of 5 (monosubstituted) when treated with 1.0 equiv nucleophile. The desymmetrization of 2 behaved similarly, and after separation and characterization the crude reaction mixture produced a 38% yield of 6 (monosubstituted derivative). […] When the same reaction was run for two equivalents of hexylamine, 1 produced 7 (disubstituted) in 48% yield and 2 produced 8 in 54% yield. […] With promising results, we then turned to desymmetrization of the penta-fluorophenol synthon, 3. […] After ^1H NMR analysis, we were able to determine the ratio of substituted derivatives in the crude reaction mixture (a similar pattern of doublet/triplets and singlets was observed as in the desymmetrization of 1). […] Both desymmetrization reactions yielded higher than statisctical yields and the products were able to be readily isolated via column chromatography. When developing a reactive synthon for desymmetrization, stability and scalability are also important factors to consider. […] Purification of 1 and 2 required a large volume of solvents owing to limited solubility (100s of mL for 10s of mg), while 3 offered a short one-step work up with good solubility.
Due to its ease of synthesis, stability, desymmetrization, and purification, 3 was determined to be the best candidate to work with moving forward. […] Furthermore, the stability of the F5Ph esters on 3 also offers easy separation of desymmetrized intermediates using flash column chromatography.
In order to test the applicability of the reaction methodology to different amine based neuclopehiles/side-arms, we attempted a few different amines. […] (Scheme 3).

The conditions of data set [2]: cited from earlier work.
Setting [3] is: under an inert (and dry) atmosphere.

These results are taken from patent publication US20250058024A1, “INJECTABLE TOUGH AND VISCOELASTIC BTA HYDROGEL” (UNIVERSITEIT MAASTRICHT, priority 2021, published 2025).

For `O=C(Oc1cccc([N+](=O)[O-])c1)c1cc(C(=O)Oc2cccc([N+](=O)[O-])c2)cc(C(=O)Oc2cccc([N+](=O)[O-])c2)c1` [compound 1], the stability on storage result in data set [1] (in a desiccator) is “stable in a desiccator when stored for a year”. The “stability on handling in the lab” value in data set [1] is reported as “started to hydrolyze”.

In the case of `CCCCCCNC(=O)c1cc(C(=O)NCCCCCC)cc(C(=O)Oc2c(F)c(F)c(F)c(F)c2F)c1` [compound 10], the stability on storage result in data set [1] (setting [3]) is given as “stable over months”.

Consider `O=C(Oc1ccc([N+](=O)[O-])cc1)c1cc(C(=O)Oc2ccc([N+](=O)[O-])cc2)cc(C(=O)Oc2ccc([N+](=O)[O-])cc2)c1` [compound 2], for which, in data set [1] (in a desiccator), the stability on storage result is recorded as “stable in a desiccator when stored for a year”. Moreover, the “stability on handling in the lab” value in data set [1] is listed as “started to hydrolyze”.

For the compound `O=C(Oc1c(F)c(F)c(F)c(F)c1F)c1cc(C(=O)Oc2c(F)c(F)c(F)c(F)c2F)cc(C(=O)Oc2c(F)c(F)c(F)c(F)c2F)c1` [compound 3, 1,3,5-benzenetricarbonylpentafluoroester], the “stability on handling in the lab” value in data set [1] is given as “stable for more than two years”. In addition, in data set [1] (setting [3]), the stability on storage entry is “stable over years”.

Turning to `O=C1CCC(=O)N1O` [N-hydroxy succinimide], in data set [2], the pka is listed as 6.0.

As for `CCCCCCNC(=O)c1cc(C(=O)Oc2c(F)c(F)c(F)c(F)c2F)cc(C(=O)Oc2c(F)c(F)c(F)c(F)c2F)c1` [compound 9], the stability on storage result in data set [1] (setting [3]) is recorded as “stable over months”.

As for `Oc1c(F)c(F)c(F)c(F)c1F` [2,3,4,5,6-pentafluorophenol], in data set [2], the pka is given as 5.4.

Consider `O=[N+]([O-])c1cccc(O)c1` [3-nitrophenol], for which the pka in data set [2] is 8.36.
